Laboratory results from the supplement of paper PMC11061612.

Tests used:
[1] = system: BT-549 (Breast Carcinoma); test: Bliss excess, mean over the matrix (fraction); higher = more synergy
In short: (§1)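 Bliss excess equals the observed combination effect minus the expected value EA + EB − EA·EB, where EA and EB are the effects of each agent alone. Combination Emax is the second-highest inhibition within the matrix. Inhibition was scaled from CellTiter-Glo 2.0 luminescence, with 0 set by vehicle wells and 1 by blank wells, after 72 hours of two-drug dosing of cells plated in 1536-well plates.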

[2] = system: Ca9-22 (Head and Neck Carcinoma); test: as above
In short: as §1

UACC-62 (Melanoma) = test: as above
In short: as §1

[3] = system: KYSE-450 (Esophageal Squamous Cell Carcinoma); test: as above
In short: as §1

[4] = system: NCI-H727 (Other Solid Carcinomas); test: as above
In short: as §1

[5] = system: LU-65 (Non-Small Cell Lung Carcinoma); test: as above
In short: as §1

[6] = system: PANC-04-03 (Pancreatic Carcinoma); test: as above
In short: as §1

[7] = system: NCI-H358 (Lung Adenocarcinoma); test: as above
In short: as §1

NB69 (Neuroblastoma) [8] = test: as above
In short: as §1

[9] = system: EFM-19 (Breast Carcinoma); test: as above
In short: as §1

TGW (Neuroblastoma) = test: as above
In short: as §1

D-263MG (Glioblastoma) = test: as above
In short: as §1

YH-13 (Glioblastoma) = test: as above
In short: as §1

[10] = system: AMO-1 (Plasma Cell Myeloma); test: as above
In short: as §1

EW-24 (Ewing's Sarcoma) = test: as above
In short: as §1

[11] = system: Ca9-22 (Head and Neck Carcinoma); test: combination Emax (second highest fraction inhibited in the dose matrix, 72 h); higher = more inhibition; extreme values may be limits of the assay
In short: as §1

[12] = system: SW13 (Other Solid Carcinomas); test: as above
In short: as §1

NB69 (Neuroblastoma) [13] = test: as above
In short: as §1

[14] = system: Caov-4 (Ovarian Carcinoma); test: as above
In short: as §1

[15] = system: EoL-1-cell (Acute Myeloid Leukemia); test: as above
In short: as §1

CN(CCO)CC[C@H](CSc1ccccc1)Nc1ccc(S(=O)(=O)NC(=O)c2ccc(N3CCC([C@@H](O)c4ccccc4-c4ccc(Cl)cc4)CC3)cc2)cc1S(=O)(=O)C(F)(F)F [AZD4320] + C=CCn1c(=O)c2cnc(Nc3ccc(N4CCN(C)CC4)cc3)nc2n1-c1cccc(C(C)(C)O)n1 [AZD1775] (first compound max 1 µM, partner max 1 µM)
Bliss excess [1]: 0.0109
Bliss excess [2]: 0.0335
Bliss excess (UACC-62 (Melanoma)): 0.025
Bliss excess [3]: -0.0535
Bliss excess [4]: -0.0587
Bliss excess [5]: -0.0162
Bliss excess [6]: -0.048
Bliss excess [7]: -0.0765
Bliss excess (NB69 (Neuroblastoma) [8]): 0.0032
Bliss excess [9]: 0.0433
Bliss excess (TGW (Neuroblastoma)): -0.008
Bliss excess (D-263MG (Glioblastoma)): -0.0277
Bliss excess (YH-13 (Glioblastoma)): -0.0163
Bliss excess [10]: 0.0119
Bliss excess (EW-24 (Ewing's Sarcoma)): 0.119
combination Emax [11]: 0.851
combination Emax [12]: 0.167
combination Emax (NB69 (Neuroblastoma) [13]): 0.952
combination Emax [14]: 0.857
combination Emax [15]: 1

CN(CCO)CC[C@H](CSc1ccccc1)Nc1ccc(S(=O)(=O)NC(=O)c2ccc(N3CCC([C@@H](O)c4ccccc4-c4ccc(Cl)cc4)CC3)cc2)cc1S(=O)(=O)C(F)(F)F [AZD4320] + Nc1ccn([C@@H]2O[C@H](CO)[C@@H](O)C2(F)F)c(=O)n1 [Gemcitabine] (first compound max 1 µM, 7x7, partner max 0.3 µM)
Bliss excess [1]: -0.0365
Bliss excess [2]: 0.0876
Bliss excess (UACC-62 (Melanoma)): -0.006
Bliss excess [3]: -0.0497
Bliss excess [4]: 0.0335
Bliss excess [5]: -0.0667
Bliss excess [6]: -0.0496
Bliss excess [7]: -0.0227
Bliss excess (NB69 (Neuroblastoma) [8]): -0.0203
Bliss excess [9]: 0.0067
Bliss excess (TGW (Neuroblastoma)): 0.0257
Bliss excess (D-263MG (Glioblastoma)): -0.0625
Bliss excess (YH-13 (Glioblastoma)): 0.0368
Bliss excess [10]: -0.036
Bliss excess (EW-24 (Ewing's Sarcoma)): 0.118
combination Emax [11]: 0.927
combination Emax [12]: 0.927
combination Emax (NB69 (Neuroblastoma) [13]): 0.997
combination Emax [14]: 0.685
combination Emax [15]: 1

Cc1cc2ncnn2cc1Nc1ncc2c(n1)n(C1CCOCC1)c(=O)n2C [AZD7648] + C=CCn1c(=O)c2cnc(Nc3ccc(N4CCN(C)CC4)cc3)nc2n1-c1cccc(C(C)(C)O)n1 [AZD1775] (first compound max 10 µM, partner max 1 µM)
Bliss excess [1]: -0.0348
Bliss excess [2]: 0.022
Bliss excess (UACC-62 (Melanoma)): 0.0242
Bliss excess [3]: -0.03
Bliss excess [4]: 0.024
Bliss excess [5]: -0.0027
Bliss excess [6]: 0.0135
Bliss excess [7]: -0.0156
Bliss excess (NB69 (Neuroblastoma) [8]): -0.0504
Bliss excess [9]: -0.0596
Bliss excess (TGW (Neuroblastoma)): -0.0505
Bliss excess (D-263MG (Glioblastoma)): 0.0037
Bliss excess (YH-13 (Glioblastoma)): 0.0076
Bliss excess [10]: -0.0422
Bliss excess (EW-24 (Ewing's Sarcoma)): -0.0294
combination Emax [11]: 0.734
combination Emax [12]: 0.329
combination Emax (NB69 (Neuroblastoma) [13]): 0.887
combination Emax [14]: 0.922
combination Emax [15]: 0.978

CN(CCO)CC[C@H](CSc1ccccc1)Nc1ccc(S(=O)(=O)NC(=O)c2ccc(N3CCC([C@@H](O)c4ccccc4-c4ccc(Cl)cc4)CC3)cc2)cc1S(=O)(=O)C(F)(F)F [AZD4320] + Cc1cc2ncnn2cc1Nc1ncc2c(n1)n(C1CCOCC1)c(=O)n2C [AZD7648] (first compound max 1 µM, 7x7, partner max 10 µM)
Bliss excess [1]: -0.0213
Bliss excess [2]: -0.0039
Bliss excess (UACC-62 (Melanoma)): -0.0329
Bliss excess [3]: -0.0383
Bliss excess [4]: -0.0609
Bliss excess [5]: -0.007
Bliss excess [6]: -0.0556
Bliss excess [7]: -0.0394
Bliss excess (NB69 (Neuroblastoma) [8]): -0.0649
Bliss excess [9]: -0.0326
Bliss excess (TGW (Neuroblastoma)): 0.0125
Bliss excess (D-263MG (Glioblastoma)): -0.0192
Bliss excess (YH-13 (Glioblastoma)): -0.0186
Bliss excess [10]: -0.0243
Bliss excess (EW-24 (Ewing's Sarcoma)): -0.0171
combination Emax [11]: 0.163
combination Emax [12]: 0.193
combination Emax (NB69 (Neuroblastoma) [13]): 0.801
combination Emax [15]: 1

Cc1cc2ncnn2cc1Nc1ncc2c(n1)n(C1CCOCC1)c(=O)n2C [AZD7648] + CN(C)CCCOc1ccc(-c2ccc3ncc4c(c3c2)n(C2CCOCC2)c(=O)n4C)cn1 [AZD0156] (first compound max 10 µM, 7x7, partner max 1 µM)
Bliss excess [1]: 0.0101
Bliss excess [2]: 0.0625
Bliss excess (UACC-62 (Melanoma)): 0.0247
Bliss excess [3]: 0.0038
Bliss excess [4]: 0.0162
Bliss excess [5]: 0.0053
Bliss excess [6]: 0.0016
Bliss excess [7]: 0.0054
Bliss excess (NB69 (Neuroblastoma) [8]): -0.0382
Bliss excess [9]: -0.0815
Bliss excess (TGW (Neuroblastoma)): 0.0804
Bliss excess (D-263MG (Glioblastoma)): 0.005
Bliss excess (YH-13 (Glioblastoma)): -0.0263
Bliss excess [10]: 0.0135
Bliss excess (EW-24 (Ewing's Sarcoma)): -0.0643
combination Emax [11]: 0.226
combination Emax [12]: 0.39
combination Emax (NB69 (Neuroblastoma) [13]): 0.565
combination Emax [14]: 0.344
combination Emax [15]: 0.238

Cc1cc2ncnn2cc1Nc1ncc2c(n1)n(C1CCOCC1)c(=O)n2C [AZD7648] + O=C(c1cc(Cc2n[nH]c(=O)c3ccccc23)ccc1F)N1CCN(C(=O)C2CC2)CC1 [Olaparib] (first compound max 10 µM, 7x7, partner max 10 µM)
Bliss excess [1]: -0.0487
Bliss excess [2]: -0.0072
Bliss excess (UACC-62 (Melanoma)): -0.0219
Bliss excess [3]: -0.0635
Bliss excess [4]: -0.0641
Bliss excess [5]: -0.0146
Bliss excess [6]: -0.0369
Bliss excess [7]: -0.0179
Bliss excess (NB69 (Neuroblastoma) [8]): -0.0397
Bliss excess [9]: -0.0652
Bliss excess (TGW (Neuroblastoma)): -0.0248
Bliss excess (D-263MG (Glioblastoma)): -0.0367
Bliss excess (YH-13 (Glioblastoma)): -0.0272
Bliss excess [10]: -0.0231
Bliss excess (EW-24 (Ewing's Sarcoma)): -0.0449
combination Emax [11]: 0.113
combination Emax [12]: 0.203
combination Emax (NB69 (Neuroblastoma) [13]): 0.541
combination Emax [14]: 0.199
combination Emax [15]: 0.42

CN(CCO)CC[C@H](CSc1ccccc1)Nc1ccc(S(=O)(=O)NC(=O)c2ccc(N3CCC([C@@H](O)c4ccccc4-c4ccc(Cl)cc4)CC3)cc2)cc1S(=O)(=O)C(F)(F)F [AZD4320] + C[C@@H]1COCCN1C2=NC(=NC(=C2)C3(CC3)[S@](=N)(=O)C)C4=C5C=CNC5=NC=C4 [AZD6738] (first compound max 1 µM, 7x7, partner max 10 µM)
Bliss excess [1]: -0.0239
Bliss excess [2]: 0.0001
Bliss excess (UACC-62 (Melanoma)): -0.0317
Bliss excess [3]: -0.0496
Bliss excess [4]: -0.0735
Bliss excess [5]: -0.0092
Bliss excess [6]: -0.0714
Bliss excess [7]: -0.0195
Bliss excess (NB69 (Neuroblastoma) [8]): -0.0533
Bliss excess [9]: -0.0511
Bliss excess (TGW (Neuroblastoma)): -0.0629
Bliss excess (D-263MG (Glioblastoma)): -0.0424
Bliss excess (YH-13 (Glioblastoma)): -0.0035
Bliss excess (EW-24 (Ewing's Sarcoma)): 0.0267
combination Emax [11]: 0.969
combination Emax [12]: 0.405
combination Emax (NB69 (Neuroblastoma) [13]): 0.959
combination Emax [14]: 0.874
combination Emax [15]: 1
